Data on 22 compounds can be found in PubChem BioAssay AID328 (DTP/NCI, 2004).

Each structure is given as a SMILES string. “And” between values parts separate entries of the source, which are not always exact repeats. Equal values may be shown once. Toxic doses and inconclusive results are not listed.

The subject of this test is BDF1 mice, P388 leukemia ip, median survival T/C. Put plainly: NCI In Vivo Anticancer Drug Screen. Data for tumor model P388 Leukemia (intraperitoneal) in B6D2F1 (BDF1) mice. The conditions noted are these: endpoint: median survival time, higher = longer survival. The essentials:
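Vehicle-dosed animals serve as the reference; survival of compound-dosed, tumour-implanted mice is divided by it.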

Where [1] appears, read: dose: 12.5 mg/kg/injection, schedule: Q01DX009 (ip), vehicle: Klucel (hydroxypropylcellulose) (HPC).
[2] abbreviates: dose: 50.0 mg/kg/injection, schedule: Q01DX009 (ip), vehicle: Klucel (hydroxypropylcellulose) (HPC).
[3] abbreviates: dose: 100.0 mg/kg/injection, schedule: Q01DX009 (ip), vehicle: Klucel (hydroxypropylcellulose) (HPC).
Setting [4] is: dose: 25.0 mg/kg/injection, schedule: Q01DX009 (ip), vehicle: saline.
Where [5] appears, read: dose: 50.0 mg/kg/injection, schedule: Q01DX009 (ip), vehicle: saline.
Setting [6] is: dose: 50.0 mg/kg/injection, schedule: Q04DX003 (ip), vehicle: saline.
[7] abbreviates: dose: 100.0 mg/kg/injection, schedule: Q04DX003 (ip), vehicle: saline.
The mark [8] stands for this setting: dose: 200.0 mg/kg/injection, schedule: Q04DX003 (ip), vehicle: saline.
Setting [9] is: dose: 400.0 mg/kg/injection, schedule: Q04DX003 (ip), vehicle: saline.
[10] abbreviates: dose: 50.0 mg/kg/injection, schedule: Q01DX009 (ip), vehicle: saline with Tween-80.
The mark [11] stands for this setting: dose: 100.0 mg/kg/injection, schedule: Q01DX009 (ip), vehicle: saline with Tween-80.
Where [12] appears, read: dose: 200.0 mg/kg/injection, schedule: Q01DX009 (ip), vehicle: saline with Tween-80.
Setting [13] is: dose: 25.0 mg/kg/injection, schedule: Q04DX003 (ip), vehicle: saline with Tween-80.
Setting [14] is: dose: 50.0 mg/kg/injection, schedule: Q04DX003 (ip), vehicle: saline with Tween-80.
Setting [15] is: dose: 10.0 mg/kg/injection, schedule: Q01DX010 (ip), vehicle: saline.
Where [16] appears, read: dose: 100.0 mg/kg/injection, schedule: Q04DX003 (ip), vehicle: saline with Tween-80.
Setting [17] is: dose: 200.0 mg/kg/injection, schedule: Q04DX003 (ip), vehicle: saline with Tween-80.
[18] abbreviates: dose: 400.0 mg/kg/injection, schedule: Q04DX003 (ip), vehicle: saline with Tween-80.

For `Cc1ccc2c(c1)CC(C)([CH2][Hg][Cl])O2` (stereo unspecified), the T/C by setting is: (dose: 3.0 mg/kg/injection, schedule: Q01DX009 (ip), vehicle: Klucel (hydroxypropylcellulose) (HPC)) 94 % of control; (dose: 3.0 mg/kg/injection, schedule: Q04DX003 (ip), vehicle: Klucel (hydroxypropylcellulose) (HPC)) 103 % of control; (dose: 6.0 mg/kg/injection, schedule: Q01DX009 (ip), vehicle: Klucel (hydroxypropylcellulose) (HPC)) 105 % of control; (dose: 6.0 mg/kg/injection, schedule: Q04DX003 (ip), vehicle: Klucel (hydroxypropylcellulose) (HPC)) 94 % of control; (dose: 12.0 mg/kg/injection, schedule: Q01DX009 (ip), vehicle: Klucel (hydroxypropylcellulose) (HPC)) 119 % of control; (dose: 12.0 mg/kg/injection, schedule: Q04DX003 (ip), vehicle: Klucel (hydroxypropylcellulose) (HPC)) 100 % of control.
For `CCNc1nc(Cl)nc(-c2cn(-c3ccccc3)c3ccccc23)n1`, the T/C under setting [1] is 100 % of control; the T/C (dose: 25.0 mg/kg/injection, schedule: Q01DX009 (ip), vehicle: Klucel (hydroxypropylcellulose) (HPC)) is 91 % of control; the T/C under setting [2] is 86 % of control; the T/C under setting [3] is 91 % of control.
Take `CCCCN(CCCC)CCOC(=O)c1ccc([N+](=O)[O-])cc1`: the T/C is 100 % of control (dose: 50.0 mg/kg/injection, schedule: Q01DX001 (ip), vehicle: saline); 100 % of control (dose: 100.0 mg/kg/injection, schedule: Q01DX001 (ip), vehicle: saline); 100 % of control (dose: 200.0 mg/kg/injection, schedule: Q01DX001 (ip), vehicle: saline).
On to `CS(C)=O.CS(C)=O.CS(C)=O.[Cl][Rh]([Cl])[Cl]`, for which the T/C (dose: 3.12 mg/kg/injection, schedule: Q01DX009 (ip), vehicle: saline) is 114 % of control; the T/C (dose: 6.25 mg/kg/injection, schedule: Q01DX009 (ip), vehicle: saline) was 114 % of control; the T/C (dose: 12.5 mg/kg/injection, schedule: Q01DX009 (ip), vehicle: saline) is 116 % of control; the T/C under setting [4] is 104 % of control and 116 % of control; the T/C under setting [5] was 116 % of control; the T/C under setting [6] is 100 % of control. For the same compound, the T/C under setting [7] was 109 % of control.
Turning to `CC(=O)CC(C)(C)c1ccccc1`, the T/C is, setting by setting: under setting [4], 118 % of control; under setting [5], 111 % of control; under setting [6], 105 % of control; under setting [7], 105 % of control; (dose: 200.0 mg/kg/injection, schedule: Q01DX009 (ip), vehicle: saline) 93 % of control; under setting [8], 121 % of control. For the same compound, the T/C under setting [9] was 102 % of control.
For the compound `NC(=S)NN1C2CSC1CS2`, the T/C reads like this: (dose: 22.5 mg/kg/injection, schedule: Q01DX009 (ip), vehicle: saline with Tween-80) 100 % of control; (dose: 45.0 mg/kg/injection, schedule: Q01DX009 (ip), vehicle: saline with Tween-80) 110 % of control; (dose: 90.0 mg/kg/injection, schedule: Q01DX009 (ip), vehicle: saline with Tween-80) 108 % of control.
For the compound `O=C(Nc1cccc(Cl)c1)NN(c1ccccc1)C1CCS(=O)(=O)C1` (stereo unspecified), the T/C runs as follows: under setting [10], 99 % of control; under setting [11], 98 % of control; under setting [12], 100 % of control.
Consider `CCC(=O)c1cc(OC)cc(OC)c1`, for which the T/C reads like this: under setting [7], 115 % of control; under setting [8], 120 % of control; under setting [9], 120 % of control.
In the case of `O=C(/C=C/c1ccc(Cl)c(Cl)c1)c1ccc(Cl)cc1`, the T/C runs as follows: (dose: 12.5 mg/kg/injection, schedule: Q04DX003 (ip), vehicle: saline with Tween-80) 100 % of control; under setting [13], 100 % of control; under setting [14], 90 % of control.
In the case of `O=C(O)c1[nH]c(=O)[nH]c(=O)c1F`, the T/C is, setting by setting: (dose: 2.5 mg/kg/injection, schedule: Q01DX010 (ip), vehicle: saline) 152 % of control; under setting [15], 166 % of control.
As for `O=C(NC(=O)OCCCCCl)Nc1cccc(Cl)c1`, the T/C under setting [10] is 100 % of control, the T/C under setting [11] was 98 % of control and the T/C under setting [12] is 88 % of control.
As for `Cc1cc(C)c2c(=O)[nH][nH]c2n1`, the T/C under setting [11] is 96 % of control; the T/C under setting [12] was 100 % of control; the T/C (dose: 400.0 mg/kg/injection, schedule: Q01DX009 (ip), vehicle: saline with Tween-80) is 94 % of control.
Regarding `O=C(O)C(CS(=O)(=O)O)Nc1ncnc2nc[nH]c12` (stereo unspecified), the T/C under setting [7] is 100 % of control, the T/C under setting [8] is 100 % of control and the T/C under setting [9] is 100 % of control.
For `CCCCCCCCCCCC[S+](C)C`, the T/C is, setting by setting: under setting [15], 116 % of control; (dose: 10.0 mg/kg/injection, schedule: Q04DX003 (ip), vehicle: saline) 120 % of control; (dose: 20.0 mg/kg/injection, schedule: Q01DX010 (ip), vehicle: saline) 112 % of control; (dose: 20.0 mg/kg/injection, schedule: Q04DX003 (ip), vehicle: saline) 120 % of control.
On to `COC(OC)c1[nH]c(=S)[nH]c(=O)c1Cc1cc([N+](=O)[O-])ccc1O`, for which the T/C runs as follows: under setting [13], 104 % of control; under setting [14], 108 % of control; under setting [16], 95 % of control; under setting [17], 104 % of control; under setting [18], 90 % of control.
In the case of `Cc1ccc(S(=O)(=O)N/N=C/C(=O)O)cc1`, the T/C is 113 % of control and 111 % of control (dose: 6.25 mg/kg/injection, schedule: Q01DX009 (ip), vehicle: Klucel (hydroxypropylcellulose) (HPC)); 112 % of control (dose: 6.25 mg/kg/injection, schedule: Q01DX009 (ip), vehicle: other); 124 % of control under setting [1]; 191 % of control and 169 % of control and 185 % of control under setting [2]; 90 % of control and 101 % of control under setting [3]; 114 % of control (dose: 400.0 mg/kg/injection, schedule: Q01DX009 (ip), vehicle: Klucel (hydroxypropylcellulose) (HPC)).
As for `O=C(O)CCCCCCCC(=O)c1ccccc1`, the T/C reads like this: (dose: 50.0 mg/kg/injection, schedule: Q04DX003 (ip), vehicle: saline sonified) 100 % of control; (dose: 100.0 mg/kg/injection, schedule: Q04DX003 (ip), vehicle: saline sonified) 104 % of control; (dose: 200.0 mg/kg/injection, schedule: Q04DX003 (ip), vehicle: saline sonified) 95 % of control.
Take `O=C(O)CCN1CCCc2ccccc21`: the T/C was 95 % of control (dose: 50.0 mg/kg/injection, schedule: Q01DX009 (ip), vehicle: other); 104 % of control (dose: 100.0 mg/kg/injection, schedule: Q01DX009 (ip), vehicle: other); 95 % of control (dose: 200.0 mg/kg/injection, schedule: Q01DX009 (ip), vehicle: other).
Regarding `CC1(c2cccs2)NC(=O)NC1=O` (stereo unspecified), the T/C is 104 % of control (dose: 25.0 mg/kg/injection, schedule: Q01DX009 (ip), vehicle: saline with Tween-80); 96 % of control and 124 % of control under setting [10]; 112 % of control and 111 % of control under setting [11]; 100 % of control under setting [16]; 101 % of control under setting [12]; 104 % of control and 98 % of control under setting [17]. Under setting [18], the T/C was 100 % of control and 90 % of control.
`Cc1ccc(N2C(=O)CSC2=S)cc1`: the T/C by setting is: under setting [10], 105 % of control; under setting [11], 95 % of control; under setting [12], 95 % of control.
As for `C=C1CC(C2CCC(C)(C)C2)OC1=O` (stereo unspecified), the T/C was 102 % of control (dose: 25.0 mg/kg/injection, schedule: Q04DX002 (ip), vehicle: saline with Tween-80) and 100 % of control (dose: 50.0 mg/kg/injection, schedule: Q04DX002 (ip), vehicle: saline with Tween-80).
As for `O=C(Nc1ccc2c(c1)OCO2)O/N=C\c1cccnc1`, the T/C is, setting by setting: under setting [14], 100 % of control; under setting [16], 109 % of control; under setting [17], 109 % of control.
